Assay results taken from patent EP2548863A1, “New CRTh2 antagonists” (Almirall, S.A., priority 2011, dated 2013).

Target: T1, CRTh2 receptor (Homo sapiens, UniProt Q9Y5Y4)
T1 construct: expressed in transfected cells; host or cells: CHO.K1 cells (membranes)
T1 sequence (Q9Y5Y4 1-395): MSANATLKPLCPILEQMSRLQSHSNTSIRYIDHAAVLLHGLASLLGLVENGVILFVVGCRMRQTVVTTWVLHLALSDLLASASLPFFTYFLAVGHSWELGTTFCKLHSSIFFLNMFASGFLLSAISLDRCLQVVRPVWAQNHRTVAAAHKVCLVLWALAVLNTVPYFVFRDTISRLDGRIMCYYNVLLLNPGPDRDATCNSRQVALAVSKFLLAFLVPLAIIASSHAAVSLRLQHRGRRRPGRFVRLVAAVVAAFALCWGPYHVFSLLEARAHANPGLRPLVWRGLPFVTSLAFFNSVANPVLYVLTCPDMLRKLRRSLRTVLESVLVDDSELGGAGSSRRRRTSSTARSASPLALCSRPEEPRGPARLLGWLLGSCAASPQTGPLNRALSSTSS
Test: CRTh2 GTPγS antagonism binding assay
Assay type: biochemical
Conditions: membranes from CHO.K1 cells stably overexpressing the CRTh2 receptor; [35S]-GTPγS 0.1 nM; PGD2 at 50 nM (EC80); IC50 per method; read-out: GTPγ Binding
Protocol: CRTh2 GTPγS antagonism bending assay
The assay is performed using membranes obtained from CHO.K1 cells stably overexpressing the CRTh2 receptor and [^35S]-GTPγS as radioligand. Assay is performed pre-incubating 4-8 µg of membranes per well with the compound to be tested for 1h, followed by incubation with PGD2 at 50 nM (EC80), 0.1 nM [^35S]-GTPγS in incubation buffer (20 mM Herpes, 10 mM MgCl2, 100 mM NaCl, 10 µM GDP, 10 µg/ml Saponine and 0.2% BSA) for 2 h at room temperature. The reaction is terminated by filtering in GF/C plates pre-treated with 20 mM HEPES, 10 mM MgCl2, 100 mM NaCl and washing 6 times with wash buffer (20 mM NaH2PO4, 20 mM Na2HPO4). After washing, plates are dried and scintillation buffer Optiphase added. The radioactivity retained in the filter is counted using a Microbeta liquid scintillation counter. Compound IC50 are determined using Excel XL-fit for calculations.

SMILES | IC50 [nM]
CCN(Cc1cc(C(F)(F)F)ccc1-c1nn(CC(=O)O)c2cccc(Cl)c12)C(=O)C1CC1 [Example 2, {4-Chloro-3-[2-{[(cyccopropylcarbonyl)(ethyl)amino]methyl}-4-(trifluoromethyl)phenyl]-1H-indazol-1-yl}acetic acid] | 6
CCN(Cc1cc(C(F)(F)F)ccc1-c1nn(CC(=O)O)c2ccc(F)cc12)C(=O)C1CC1 [Example 3, {3-[2-{[(Cyclopropylcarbonyl)(ethyl)amino]methyl}-4-(trifluoromethyl)phenyl]-5-fluoro-1H-indazol-1-yl}acetic acid] | 15
CCN(Cc1cc(C(F)(F)F)ccc1-c1nn(CC(=O)O)c2ccc(Cl)cc12)C(=O)C1CC1 [Example 5] | 16
CCN(Cc1cc(F)ccc1-c1nn(CC(=O)O)c2ccc(Cl)cc12)C(=O)C1CC1 [Example 11, [5-Chloro-3-(2-{[(cyclopropylcarbonyl)(ethyl)amino]methyl}-4-fluorophenyl)-1H-indazol-1-yl]acetic acid] | 6
CCN(Cc1cc(C(F)(F)F)ccc1-c1nn(CC(=O)O)c2cccc(C)c12)C(=O)C1CC1 [Example 16, {3-[2-{[(Cyclopropylcarbonyl)(ethyl)ammo]methyl}-4-(trifluoromethyl)phenyl]-4-methyl-1H-indazol-1-yl}acetic acid] | 17
CCN(Cc1cc(C(F)(F)F)ccc1-c1nn(CC(=O)O)c2ccc(F)c(Cl)c12)C(=O)C1CC1 [Example 17, {4-Chloro-3-[2-{[(cydopropylcarbonyl)(ethyl)amino]methyl}-4-(trifluoromethyl)phenyl]-5-fluoro-1H-indazol-1-yl}acetic acid] | 10
CCN(Cc1cc(F)ccc1-c1nn(CC(=O)O)c2ccc(Cl)cc12)C(=O)OC(C)(C)C [Example 18, [3-(2-{[(tert-Butoxycarbonyl)(ethyl)amino]methyl}-4-fluorophenyl)-5-chloro-1H-indazol-1-yl]acetic acid] | 13
CCN(Cc1cc(F)ccc1-c1nn(CC(=O)O)c2ccc(Cl)cc12)C(=O)C1CCC1 [Example 19, [5-Chloro-3-(2-{[(cyclobutylcarbonyl)(ethyl)amino]methyl}-4-fluorophenyl)-1H-indazol-1-yl]acetic acid] | 7
CCN(Cc1cc(F)ccc1-c1nn(CC(=O)O)c2ccc(Cl)cc12)C(C)=O [Example 22] | 10
CCN(Cc1cc(C(F)(F)F)ccc1-c1nn(CC(=O)O)c2cccc(Cl)c12)C(=O)NCc1ccccc1 [Example 23, (3-[2-{[[(Benzylamino)carbonyl](ethyl)amino]methyl}-4-(trifluoromethyl)phenyl]-4-chloro-1H-indazol-1-yl}acetic acid] | 8
CCN(Cc1ccccc1-c1nn(CC(=O)O)c2ccc(Cl)cc12)C(=O)C1CC1 [Example 24] | 9
CCN(Cc1cc(C(F)(F)F)ccc1-c1nn(CC(=O)O)c2ccc(Cl)c(F)c12)C(=O)C1CC1 [Example 27] | 14
CCN(Cc1cc(C(F)(F)F)ccc1-c1cn(CC(=O)O)c2ccc(F)cc12)C(=O)C1CC1 [Example 33] | 18
CCN(Cc1cc(F)ccc1-c1cn(CC(=O)O)c2ccccc12)C(=O)C1CC1 [Example 37, [3-(2-[[(Cyclopropylcarbonyl)(ethyl)amino]methyl}-4-fluorophenyl)-1H-indol-1-yl]acetic acid] | 11
CCN(Cc1cc(C(F)(F)F)ccc1-c1cn(CC(=O)O)c2ccc(F)cc12)C(=O)NCc1ccccc1 [Example 43, {3-[2-{[[(Benzylamino)carbonyl](ethyl)aaino]methyl]-4-(trifluoromethyl)phenyl]-5-fluoro-1H-indol-1-yl}acetic acid] | 16
Cc1nnc(C2CC2)n1Cc1cc(C(F)(F)F)ccc1-c1cn(CC(=O)O)c2ccc(F)cc12 [Example 46, (3-[2-[(3-Cyclopropyl-5-methyl-4H-1,2,4-triazol-4-yl)methyl]-4-(trifluoromethyl)phenyl]-5-fluoro-1H-indol-1-yl}acetic acid] | 9

Other lines, results leading:

IC50 [nM] | SMILES
18 | CCN(Cc1cc(C(F)(F)F)ccc1-c1nn(CC(=O)O)c2ccccc12)C(=O)C1CC1 [Example 1, {3-[2-{[(Cyclopropylcarbonyl)(ethyl)amino]methyl]-4-(trifluoromethyl)phenyl]-1H-indazol-1-yl}acetic acid]
9 | CCN(Cc1cc(F)ccc1-c1nn(CC(=O)O)c2cccc(Cl)c12)C(=O)C1CC1 [Example 4, [4-Chloro-3-(2-{[(cyclopropylcarbonyl)(ethyl)amino]methyl}-4-fluorophenyl)-1H-indazol-1-yl]acetic acid]
7 | CCN(Cc1cc(F)ccc1-c1nn(CC(=O)O)c2ccc(C(F)(F)F)cc12)C(=O)C1CC1 [Example 8, [3-(2-{[(Cyclopropylcarbonyl)(ethyl)amino]methyl}-4-fluorophenyl)-5-(trifluoromethyl)-1H-indazol-1-yl]acetic acid]
13 | CCN(Cc1cc(C(F)(F)F)ccc1-c1nn(C(C)C(=O)O)c2cccc(Cl)c12)C(=O)C1CC1 (stereo not drawn) [Example 9, 2-{4-Chloro-3-[2-{[(cyclopropylcarbonyl)(ethyl)amino]methyl}-4-(trifluoromethyl)phenyl]-1H-indazol-1-yl}propanoic acid]
4 | CCN(Cc1cc(C(F)(F)F)ccc1-c1nn(CC(=O)O)c2cccc(F)c12)C(=O)C1CC1 [Example 14, {3-[2-{[(Cyclopropylcarbonyl)(ethyl)amino]methyl}-4-(trifluoromethyl)phenyl]-4-fluoro-1H-indazol-1-yl}acetic acid]
8 | CCN(Cc1cc(C(F)(F)F)ccc1-c1nn(CC(=O)O)c2ccc(C)cc12)C(=O)C1CC1 [Example 15, {3-[2-{[(Cyclopropylcarbonyl)(ethyl)amino]methyl}-4-(trifluoromethyl)phenyl]-5-methyl-1H-indazol-1-yl}acetic acid]
18 | CCN(Cc1cc(C(F)(F)F)ccc1-n1cc(CC(=O)O)c2ccc(F)cc21)C(=O)C1CC1 [Example 30, {1-[2-[[(Cyclopropylcarbonyl)(ethyl)amino]methyl}-4-(trifluoromethyl)phenyl]-6-fluoro-1H-indol-3-yl}acetic acid]
19 | CCN(Cc1cc(C(F)(F)F)ccc1-c1cn(CC(=O)O)c2ccccc12)C(=O)C1CC1 [Example 31, (3-[2-[[(Cyclopropylcarbonyl)(ethyl)amino]methyl)-4-(trifluoromethyl)phenyl]-1H-indol-1-yl}acetic acid]
13 | CCN(Cc1cc(F)ccc1-c1cn(CC(=O)O)c2ccc(C(F)(F)F)cc12)C(=O)C1CC1 [Example 39, [3-(2-[[(Cyclopropylcarbonyl)(ethyl)amino]methyl}-4-fluorophenyl)-5-(trifluoromethyl)-1H-indol-1-yl]acetic acid]
3 | CCN(Cc1cc(C(F)(F)F)ccc1-c1cn(CC(=O)O)c2cccc(F)c12)C(=O)C1CC1 [Example 40, (3-[2-[[(Cyclopropylcarbonyl)(ethyl)amino]methyl}-4-(trifluoromethyl)phenyl]-4-fluoro-1H-indol-1-yl}acetic acid]
6 | CCN(Cc1cc(F)ccc1-c1cn(CC(=O)O)c2ccc(F)cc12)C(=O)C1CC1 [Example 42, [3-(2-([(Cyclopropylcarbonyl)(ethyl)amino]methyl}-4-fluorophenyl)-5-fluoro-1H-indol-1-yl]acetic acid]
16 | CCN(Cc1cc(C(F)(F)F)ccc1-c1cn(CC(=O)O)c2ccc(F)c(F)c12)C(=O)C1CC1 [Example 50, {3-[2-{[(Cyclopropylcarbonyl)(ethyl)amino]methyl)-4-(trifluoromethyl)phenyl]-4,5-difluoro-1H-indol-1-yl}acetic acid]
7 | CCN(Cc1cc(F)ccc1-c1cn(CC(=O)O)c2cccc(F)c12)C(=O)C1CC1 [Example 52, [3-(2-{[(Cyclopropylcarbonyl)(ethyl)amino]methyl}-4-fluorophenyl)-4-fluoro-1H-indol-1-yl]acetic acid]
4 | CCN(Cc1ccccc1-c1cn(CC(=O)O)c2ccc(F)cc12)C(=O)C1CC1 [Example 54, [3-(2-([(Cyclopropylcarbonyl)(ethyl)amino]methyl)phenyl)-5-fluoro-1H-indol-1-yl]acetic acid]
